From US11478471B2, “Methods and compositions for treating diabetes, metabolic syndrome and other conditions” (priority 2005, dated 2022)
Values after ≈ are worked out from the molar mass of the structure shown. Read-outs that look alike come from different tables or passages of the source.

Tests used:
plasma corticosterone = experiment: Plasma corticosterone in rats after oral dosing (ELISA); assay type: in vivo, Sprague Dawley rats; conditions: for Corticosteroid Levels (mean ± SEM): 4 h after gavage
Experimental: To generate the results shown in FIG. 1, five groups (eight per group) of rats were used. The rats were maintained on a 14/10 hour light/dark cycle and allowed free access to food and water. Each rat was dosed (200 mg drug/kg body weight) via a gastric tube. […] All of the rats were dosed between 2.00 and 3.00 pm and were sacrificed four hours later (between 6.00 and 7.00 pm). Plasma was prepared and the concentration of corticosterone determined by an enzyme linked immuno assay (ELISA). In rats, the predominant active glucocorticoid is corticosterone; in humans, the predominant active glucucorticoid is the closely related molecule cortisol.
The rats were maintained and dosed as described above. Plasma was prepared and the concentration of corticosterone in the plasma determined by ELISA.
(§1) The rats were maintained as described above; the drugs were suspended in olive oil, and each rat was dosed once via gastric tube to achieve a dose of 200 mg/kg. All of the rats were dosed at a specific time so that all terminations occurred between 6 and 7 pm. […] Following sacrifice, plasma was prepared, and the concentration of corticosterone in the plasma was determined by ELISA. In the same plasma samples, total cholesterol levels were also determined.
In the Table, corticosterone levels (mean±SEM; ng/mL) were determined four hours after oral gavage of the indicated drug (N=10/group). There was a single control group (dosed with vehicle).
Corticosterone levels (mean±SEM; ng/mL) were determined at the indicated times after oral gavage of the indicated drug at 200 mg/kg. […] The means of the vehicle treated groups are used as the time zero control point.

cholesterol levels = experiment: Cholesterol levels in rats after oral dosing; assay type: in vivo, Sprague Dawley rats; conditions: for Cholesterol Levels (mean ± SEM): single oral 200 mg/kg
Experimental: as §1

testosterone levels = experiment: Testosterone levels in rats after oral dosing; assay type: in vivo, Sprague Dawley rats; conditions: for Testosterone levels (mean ± SEM): 4 h after gavage
Description: There was a single control group (dosed with vehicle).
The means of the vehicle treated groups are used as the time zero control point.

Candida glabrata = experiment: Antifungal MIC; assay type: cell-based; conditions: Nakaseomyces glabratus
Candida guilliermondii = experiment: Antifungal MIC; assay type: cell-based; conditions: Meyerozyma guilliermondii, DSM11947; DSM strain 11947, 48 h
Candida kefyr = experiment: Antifungal MIC; assay type: cell-based; conditions: Kluyveromyces marxianus, DSM11954; DSM strain 11954, 48 h
Candida tropicalis = experiment: Antifungal MIC; assay type: cell-based
Cryptococcus neoformans = experiment: Antifungal MIC; assay type: cell-based
Issatchenkia orientalis = experiment: Antifungal MIC; assay type: cell-based; conditions: Pichia kudriavzevii
Saccharomyces cerevisiae = experiment: Antifungal MIC; assay type: cell-based; conditions: DSM01333, DSM strain 01333, 48 h
[1] = 28 day GLP toxicity study in dogs
[2] = DSM11959, DSM strain 11959, 48 h
[3] = DSM11960, DSM strain 11960, 48 h
[4] = dogs, 2, 6.5, 20 mg/kg/day, 28 days

For CC(=O)N1CCN(c2ccc(OCC3COC(Cn4ccnc4)(c4ccc(Cl)cc4Cl)O3)cc2)CC1 (racemic) [Racemic ketoconazole, 1-acetyl-4-[4-[[2-(2,4-dichlorophenyl)-2-[(1H-imidazol-1-yl)-methyl]-1,3-dioxolan-4-yl]methoxy]phenyl]piperazine], the “efficacy at lowering corticosterone, time course (FIG. 3)” value (plasma corticosterone; 200 mg/kg oral, up to 24 hours) was “intermediate between the two enantiomers”, the “Corticosteroid Levels (mean ± SEM)” value (plasma corticosterone; single oral 50 mg/kg) was 215 ± 20.7 ng/mL and the “Corticosteroid Levels (mean ± SEM)” value (plasma corticosterone; single oral 100 mg/kg) was 210 ± 15.5 ng/mL. The “Corticosteroid Levels (mean ± SEM), time course” value (plasma corticosterone; single oral 200 mg/kg, 4 h) was 134 ± 10 ng/mL, the “Corticosteroid Levels (mean ± SEM)” value (plasma corticosterone; single oral 200 mg/kg) was 135 ± 13.7 ng/mL and the “Corticosteroid Levels (mean ± SEM), time course” value (plasma corticosterone; single oral 200 mg/kg, 8 h) was 163 ± 11 ng/mL. For the same molecule, the “Corticosteroid Levels (mean ± SEM), time course” value (plasma corticosterone; single oral 200 mg/kg, 12 h) was 153 ± 14 ng/mL, the “Corticosteroid Levels (mean ± SEM), time course” value (plasma corticosterone; single oral 200 mg/kg, 16 h) was 132 ± 6 ng/mL and the “Corticosteroid Levels (mean ± SEM), time course” value (plasma corticosterone; single oral 200 mg/kg, 20 h) was 147 ± 17 ng/mL. The “Corticosteroid Levels (mean ± SEM), time course” value (plasma corticosterone; single oral 200 mg/kg, 24 h) was 151 ± 14 ng/mL, the “Corticosteroid Levels (mean ± SEM)” value (plasma corticosterone; single oral 400 mg/kg) was 113 ± 6.6 ng/mL and the “Corticosteroid Levels (mean ± SEM)” value (plasma corticosterone; single oral 600 mg/kg) was 115 ± 14.3 ng/mL. For the same molecule, the “efficacy at lowering cholesterol” value (cholesterol levels; 200 mg/kg oral, up to 24 hours) was “intermediate between the two enantiomers”, the “Cholesterol Levels (mean ± SEM)” value (cholesterol levels; 4 h) was 81.2 ± 3.9 mg/dL and the “Cholesterol Levels (mean ± SEM)” value (cholesterol levels; 8 h) was 73.5 ± 2.3 mg/dL. For the same molecule, the “Cholesterol Levels (mean ± SEM)” value (cholesterol levels; 12 h) was 69.6 ± 2.3 mg/dL, the “Cholesterol Levels (mean ± SEM)” value (cholesterol levels; 16 h) was 69.6 ± 3.1 mg/dL and the “Testosterone levels (mean ± SEM)” value (testosterone levels; single oral 50 mg/kg) was 2.7 ± 0.6 nmol/L. The “Testosterone levels (mean ± SEM)” value (testosterone levels; single oral 100 mg/kg) was 1.7 ± 0.5 nmol/L, the “Testosterone levels (mean ± SEM), time course” value (testosterone levels; single oral 200 mg/kg, 4 h) was 1.6 ± 0.6 nmol/L and the “Testosterone levels (mean ± SEM)” value (testosterone levels; single oral 200 mg/kg) was 0.4 ± 0.2 nmol/L. For the same molecule, the “Testosterone levels (mean ± SEM), time course” value (testosterone levels; single oral 200 mg/kg, 8 h) was 8.0 ± 1.0 nmol/L, the “Testosterone levels (mean ± SEM), time course” value (testosterone levels; single oral 200 mg/kg, 12 h) was 4.6 ± 0.6 nmol/L and the “Testosterone levels (mean ± SEM), time course” value (testosterone levels; single oral 200 mg/kg, 16 h) was 3.8 ± 0.5 nmol/L. The “Testosterone levels (mean ± SEM), time course” value (testosterone levels; single oral 200 mg/kg, 20 h) was 5.6 ± 0.8 nmol/L, the “Testosterone levels (mean ± SEM), time course” value (testosterone levels; single oral 200 mg/kg, 24 h) was 5.9 ± 0.5 nmol/L and the “Testosterone levels (mean ± SEM)” value (testosterone levels; single oral 400 mg/kg) was 0.4 ± 0.2 nmol/L. The “Testosterone levels (mean ± SEM)” value (testosterone levels; single oral 600 mg/kg) was 0.8 ± 0.1 nmol/L, the MIC (Candida glabrata; DSM11226, 48 h) was 0.5 µg/mL (≈ 0.941 µM) and the MIC (Candida glabrata; DSM11950, 48 h) was 0.25 µg/mL (≈ 0.47 µM). It also gave an MIC (Candida guilliermondii) of 0.125 µg/mL (≈ 0.235 µM), an MIC (Candida kefyr) of 0.03 µg/mL (≈ 0.0565 µM) and an MIC (Candida tropicalis; DSM11951, 48 h) of 0.125 µg/mL (≈ 0.235 µM). The MIC (Candida tropicalis; DSM11952, 48 h) was 4 µg/mL (≈ 7.53 µM), the MIC (Candida tropicalis; DSM11953, 48 h) was 0.06 µg/mL (≈ 0.113 µM) and the MIC (Cryptococcus neoformans; [2]) was 0.06 µg/mL (≈ 0.113 µM). It also gave an MIC (Cryptococcus neoformans; [3]) of 0.125 µg/mL (≈ 0.235 µM), an MIC (Issatchenkia orientalis; DSM11956, 48 h) of 0.25 µg/mL (≈ 0.47 µM) and an MIC (Issatchenkia orientalis; DSM11958, 48 h) of 1 µg/mL (≈ 1.88 µM). For the same molecule, the MIC (Saccharomyces cerevisiae) was 0.25 µg/mL (≈ 0.47 µM) and the body weight losses ([1]; dogs, 40 mg/kg/day, led to cessation of dosing after 9 days) was “up to 17.3%”.

For CC(=O)N1CCN(c2ccc(OC[C@@H]3CO[C@@](Cn4ccnc4)(c4ccc(Cl)cc4Cl)O3)cc2)CC1 [DIO-902, 2S,4R cis-1-acetyl-4-[4-[[2-(2,4-dichlorophenyl)-2-(1H-imidazol-1-ylmethyl)-1,3-dioxolan-4-yl]methoxyl]phenyl]piperazine], the “Corticosteroid Levels (mean ± SEM)” value (plasma corticosterone; single oral 50 mg/kg) was 186 ± 14.9 ng/mL, the “Corticosteroid Levels (mean ± SEM)” value (plasma corticosterone; single oral 100 mg/kg) was 139 ± 10.9 ng/mL and the “Corticosteroid Levels (mean ± SEM), time course” value (plasma corticosterone; single oral 200 mg/kg, 4 h) was 98 ± 10 ng/mL. The “Corticosteroid Levels (mean ± SEM)” value (plasma corticosterone; single oral 200 mg/kg) was 100 ± 8.6 ng/mL, the “Corticosteroid Levels (mean ± SEM), time course” value (plasma corticosterone; single oral 200 mg/kg, 8 h) was 116 ± 13 ng/mL and the “Corticosteroid Levels (mean ± SEM), time course” value (plasma corticosterone; single oral 200 mg/kg, 12 h) was 113 ± 8 ng/mL. For the same molecule, the “Corticosteroid Levels (mean ± SEM), time course” value (plasma corticosterone; single oral 200 mg/kg, 16 h) was 133 ± 17 ng/mL, the “Corticosteroid Levels (mean ± SEM), time course” value (plasma corticosterone; single oral 200 mg/kg, 20 h) was 136 ± 12 ng/mL and the “Corticosteroid Levels (mean ± SEM), time course” value (plasma corticosterone; single oral 200 mg/kg, 24 h) was 103 ± 14 ng/mL. The “Corticosteroid Levels (mean ± SEM)” value (plasma corticosterone; single oral 400 mg/kg) was 84 ± 11.6 ng/mL, the “Corticosteroid Levels (mean ± SEM)” value (plasma corticosterone; single oral 600 mg/kg) was 80 ± 7.8 ng/mL and the “Cholesterol Levels (mean ± SEM)” value (cholesterol levels; 4 h) was 69.6 ± 1.9 mg/dL. The “Cholesterol Levels (mean ± SEM)” value (cholesterol levels; 8 h) was 73.5 ± 3.1 mg/dL, the “Cholesterol Levels (mean ± SEM)” value (cholesterol levels; 12 h) was 77.3 ± 3.9 mg/dL and the “Cholesterol Levels (mean ± SEM)” value (cholesterol levels; 16 h) was 61.9 ± 3.1 mg/dL. For the same molecule, the “Cholesterol Levels (mean ± SEM)” value (cholesterol levels; 20 h) was 58 ± 1.2 mg/dL, the “Cholesterol Levels (mean ± SEM)” value (cholesterol levels; 24 h) was 61.9 ± 3.1 mg/dL and the “time for testosterone levels to return to normal” value (testosterone levels; 200 mg/kg) was ≤ 8 h. For the same molecule, the “Testosterone levels (mean ± SEM)” value (testosterone levels; single oral 50 mg/kg) was 2.6 ± 0.7 nmol/L, the “Testosterone levels (mean ± SEM)” value (testosterone levels; single oral 100 mg/kg) was 0.8 ± 0.3 nmol/L and the “Testosterone levels (mean ± SEM), time course” value (testosterone levels; single oral 200 mg/kg, 4 h) was 0.8 ± 0.2 nmol/L. For the same molecule, the “Testosterone levels (mean ± SEM)” value (testosterone levels; single oral 200 mg/kg) was 0.2 ± 0.1 nmol/L, the “Testosterone levels (mean ± SEM), time course” value (testosterone levels; single oral 200 mg/kg, 8 h) was 5.9 ± 0.8 nmol/L and the “Testosterone levels (mean ± SEM), time course” value (testosterone levels; single oral 200 mg/kg, 12 h) was 3.4 ± 0.5 nmol/L. The “Testosterone levels (mean ± SEM), time course” value (testosterone levels; single oral 200 mg/kg, 16 h) was 3.9 ± 0.6 nmol/L, the “Testosterone levels (mean ± SEM), time course” value (testosterone levels; single oral 200 mg/kg, 20 h) was 5.2 ± 0.6 nmol/L and the “Testosterone levels (mean ± SEM), time course” value (testosterone levels; single oral 200 mg/kg, 24 h) was 4.4 ± 0.7 nmol/L. The “Testosterone levels (mean ± SEM)” value (testosterone levels; single oral 400 mg/kg) was 0.3 ± 0.1 nmol/L, the “Testosterone levels (mean ± SEM)” value (testosterone levels; single oral 600 mg/kg) was 0 ± 0 nmol/L and the MIC (Candida glabrata; DSM11226, DSM strain 11226, 48 h, read-out: MIC) was 0.5 µg/mL (≈ 0.941 µM). It also gave an MIC (Candida glabrata; DSM11950, DSM strain 11950, 48 h, read-out: MIC) of 0.25 µg/mL (≈ 0.47 µM), an MIC (Candida guilliermondii) of 0.06 µg/mL (≈ 0.113 µM) and an MIC (Candida kefyr) of 0.03 µg/mL (≈ 0.0565 µM). The MIC (Candida tropicalis; DSM11951, DSM strain 11951, 48 h, read-out: MIC) was 0.06 µg/mL (≈ 0.113 µM), the MIC (Candida tropicalis; DSM11952, DSM strain 11952, 48 h, read-out: MIC) was 2 µg/mL (≈ 3.76 µM) and the MIC (Candida tropicalis; DSM11953, DSM strain 11953, 48 h, read-out: MIC) was 0.06 µg/mL (≈ 0.113 µM). The MIC (Cryptococcus neoformans; [2]) was 0.03 µg/mL (≈ 0.0565 µM), the MIC (Cryptococcus neoformans; [3]) was 0.125 µg/mL (≈ 0.235 µM) and the MIC (Issatchenkia orientalis; DSM11956, DSM strain 11956, 48 h, read-out: MIC) was 0.25 µg/mL (≈ 0.47 µM). For the same molecule, the MIC (Issatchenkia orientalis; DSM11958, DSM strain 11958, 48 h, read-out: MIC) was 1 µg/mL (≈ 1.88 µM), the MIC (Saccharomyces cerevisiae) was 0.25 µg/mL (≈ 0.47 µM) and the QTc ([1]; dogs, 20 mg/kg/day, 28 days) was “no obvious QTc prolongation”. For the same molecule, the “food eaten less than placebo control group” value ([1]; dogs, 20 mg/kg/day, 28 days) was 25-35%, the body weight gain ([1]; dogs, 20 mg/kg/day, 28 days, females (placebo 0.9 kg)) was 0.14 kg and the body weight gain ([1]; dogs, 20 mg/kg/day, 28 days, males (placebo 1.1 kg)) was 0.25 kg. The “change in serum chemistry measures” value [1, 4] was “reduction in cholesterol”, the hematology [1, 4] was “no hematological changes noted” and the “ophthalmological and electrocardiographic parameters” value [1, 4] was “no measurable effects”. For the same molecule, the microscopic findings ([1]; dogs, any dose, 28 days) was “no remarkable microscopic findings”.
